Literature values as cited in patent US20090111747A1, “Anti-Diabetic or Anti-Hypertensive Dietary Supplement” (priority 2005, published 2009).
Ends that are not written are not given here.

System: mammalian α-glucosidase
Conditions: literature, Oki et al., 1999

Row | Substance | inhibitory effect on mammalian α-glucosidase
1 | Tyr-Tyr-Pro-Leu (YYPL; printed: Tyr-Tyr-Pro-Leu) | neither the hydrolysate nor the peptides had any significant inhibitory effect
2 | Val-Trp | neither the hydrolysate nor the peptides had any significant inhibitory effect

System: rat intestinal α-glucosidase
Conditions: literature, Inoue et al., 2000

Row | Substance | activity against rat intestinal α-glucosidase
3 | Ile-Ile-Ser-Ile-Gly (IISIG; printed: Ile-Ile-Ser-Ile-Gly) | active against rat intestinal α-glucosidase
4 | VFIKAA | active against rat intestinal α-glucosidase
5 | VFIKAAA | active against rat intestinal α-glucosidase
6 | IISIGR | active against rat intestinal α-glucosidase
7 | Val-Phe-Ile-Lys-Ala (VFIKA; printed: Val-Phe-Ile-Lys-Ala) | active against rat intestinal α-glucosidase
